Experimental data: US6600076B1, “Cleavable, water-soluble surfactants” (The Regents of the University of California, priority 1999, dated 2003)
Like-named read-outs stand apart in the source and are kept apart here.

What was measured:
[1] = Equilibrium surface tension, Wilhelmy plate, borate buffer; type: physicochemical; settings: 100 mM borate buffer, pH 9.2
Method: Disulfide-containing surfactants with anionic head groups were synthesized. […] Equilibrium surface tensions were measured using a Kruss K10T tensiometer with a platinum Wilhelmy plate. Surfactant solutions were prepared in a 100 mM borate buffer, pH 9.2.

[2] = Surface tension of aqueous solutions, maximum bubble pressure tensiometer, incl. reduction with DTT; type: physicochemical; settings: for effect on surface tension of water: 10 mM DTT and 1 mM oxidized DTT added to water
Source text: (Menger, F. M. et al., J. Am. Chem. Soc. 115:10083-10090 (1993)). […] The surface tensions of the reacting system reported herein correspond, therefore, to a local steady state at the surface of the solution. In the absence of reaction, these surface tensions are equilibrium tensions.

[3] = Stability of solid and of aqueous solutions (surface tension over time); type: physicochemical; settings: 1 mM solution in 50 mM phosphate buffer (pH 6.9)
[4] = cited from earlier work
[5] = Surface tension after oxidation with NaOCl or bleach (pendant drop); type: physicochemical; settings: for surface tension: 4 mM
Method: To test the idea that oxidation of 1 by NaOCl would transform 1 into less surface-active products, changes in surface tensions that accompanied additions of aliquots of NaOCl to solutions of 1 were measured. The amount of OCl^− consumed by reaction with 1 was also determined by iodometry. The initial surface tension of the 2 mM solution (using the pendant drop technique) was measured to be 48 mN/m. […] The addition of subsequent aliquots of NaOCl, however, caused the surface tension to increase to ˜71 mN/m. […] In this case, only ˜8% of the OCl^− added remained unreacted.
The oxidation of 1 using NaOCl (6:1 ratio of NaOCl to 1) was performed in 50 mM phosphate buffers at three different pHs (pH 3, 6.9, and 11). Following the addition of NaOCl to aqueous solutions of 1 at pH 3 and pH 6.9, the surface tensions of the solutions were measured to increase from ˜48 mN/m to ˜71 mN/m within ˜5 min (FIG. 17). The surface tension was also determined to increase from ˜48 mN/m to ˜71 mN/m upon addition of NaOCl to an aqueous solution of 1 at pH 11. In this case, however, it took ˜15 min for the surface tension to increase to 71 mN/m. […] Therefore disulfide-based surfactants can form the basis of chemodegradable surfactant system that can be used over a wide pH range.
Household bleach was added (6:1 ratio of NaOCl to 1) to a 2 mM solution of 1 in pH 6.9 buffer. Upon addition of bleach to 1, the surface tension of the solution increased from 48 mN/m to ˜71 mN/m in ˜3 min (FIG. 18A), a result similar to our earlier observations based on the addition of NaOCl to 1. […] A control experiment was performed in which the household bleach was added to the phosphate buffer and found not to change the surface tension.

Cyclic voltammetry = type: physicochemical; settings: 5 mM of 1 or 10 mM of 2, 50 mM phosphate buffer pH 6.9, SCE reference
Method: Solutions were prepared in 50 mM phosphate buffer, pH 6.9. Application of potential was controlled using a potentiostat (Pine Instruments, Grove City, Pa.), and the experimental set-up involved using a carbon felt working electrode with cobalt phthalocyanine (catalyst) evaporated onto the surface of the electrode. A platinum counter electrode and SCE reference electrode were also used.

[6] = Interfacial tension between dodecane and aqueous solution on oxidation by NaOCl; type: physicochemical
[7] = Surface tension, pendant drop; settings: 50 mM phosphate buffer pH 6.9, concentrations around or above 10 mM
[8] = DTT (10 equivalents) added
Method: This mixture was sonicated on a setting of 50 for a period of 10 s and then vortexed for 1 min to ensure that the emulsion was thoroughly mixed.

[9] = 10 mM of 1, 5 wt. % dodecane, NaOCl 6:1
Method: The mixture was sonicated on a setting of 2 for a period of 20 s and then vortexed for 1 min to ensure that the emulsion was thoroughly mixed.
The disruption of the emulsion was determined by the observation of phase separation in the reaction vial.
A single emulsion was first divided into two vials. […] The second vial was used as a control.

1,16-dicarboxylic dioctyl disulfide [compound 3]
differences in equilibrium surface tensions between 3 and 4 at a specified concentration [1]: up to 16 mN/m

O[C@H](CS)[C@H](O)CS (racemic) [DTT, dithiothreitol, reference compound]
effect on surface tension of water [2]: did not result in a change in surface tension

CCCCCCCCCCCCCCCC[N+](C)(C)C.[Br-] [CTAB, cetyltrimethylammonium bromide]
increase in surface tension over 24 h [3]: ~0.5 mN/m | increase in surface tension over 5 days [3]: 1 mN/m | surface tension [3]: ~41 mN/m | limiting surface tension (γlim) ([4]; in 0.1 M lithium sulfate): 39 mN/m

CCCCCCCCCCCC[N+](C)(C)C.[Br-] [DTAB, dodecyltrimethylammonium bromide, reference compound]
surface tension of the initial solution ([5]; 4 mM solution, before NaOCl): ~52 mN/m | surface tension ([5]; first equivalent of NaOCl): ~43 mN/m | surface tension ([5]; second equivalent of NaOCl): ~50 mN/m | surface tension ([5]; up to six equivalents of NaOCl): 45 mN/m

CCCCCCCCCCCCOS(=O)(=O)[O-].[Na+] [SDS, sodium dodecyl sulfate]
surface pressure at an air-aqueous interface ([4]; 1 mM solution): 7.5 mN/m | surface pressure at the heptadecane-aqueous interface ([4]; 1 mM solution): 15.2 mN/m

C[N+](C)(C)CCCCCCCCS.[Br-] [compound 2, (8-mercaptooctyl)trimethylammonium bromide]
oxidation peak (Cyclic voltammetry): 0.55 V | average area occupied at the surface ([2]; 2 mM solution of 2, Gibbs adsorption equation): > 500 A^2/molecule | threshold concentration of surfactant causing a measurable reduction in surface tension ([2]; 50 mM phosphate buffer, pH 6.9, 25° C.): ~1 mM

O=C(O)CCCCCCCS [compound 4, 8-mercaptooctanoic acid]
surface pressure π at the interface of dodecane and water ([6]; 10 mM of 1 oxidized): 22.5 mN/m | surface pressure π at the surface of water ([6]; concentration of 10 mN (printed)): 2 mN/m | limiting surface tension [7]: ~47 mN/m | surface activity of the oxidation product ([5]; up to a concentration of 10 mM, 6:1 NaOCl to 1): surface-inactive

C[N+](C)(C)CCCCCCCCCCCC[N+](C)(C)C.[Br-].[Br-] [dodecane-1,12-bis(trimethylammoniumdibromide)]
limiting surface tension ([4]; dissolved into water): 38 mN/m

OC1CSSCC1O (centres unmarked) [oxidized DTT, reference compound]
effect on surface tension of water [2]: did not result in a change in surface tension

bis(8-trimethylammonium bromide)dioctyl disulfide [compound 1]
time for the interfacial tension to increase ([6]; 10 mM, 6 equivalents of NaOCl): ≤ 3 min | completion of phase separation of the emulsion [8]: ~120 min | duration of the rapid oxidation [5]: 2 to 3 min | time for the surface tension to increase ([5]; NaOCl 6:1, pH 3 and pH 6.9): ≤ 5 min | time for the surface tension to increase ([5]; NaOCl 6:1, pH 11): ~15 min | time for the surface tension to increase ([5]; household bleach, 6:1, pH 6.9): ~3 min | completion of phase separation of the emulsion [9]: 45 min | evidence of phase separation of the emulsion [9]: ≤ 10 min
